Experiments:
[1] = Liver microsome metabolic stability, human; type: in vitro ADME; conditions: human liver microsomes, 45 min incubation
Description: Purpose: This experiment investigates the metabolic stability of the compound in liver microsomes of different species such as humans, mice and rats, and the residual content of the test compound after incubation with liver microsomes of different species such as humans, mice and rats.
Preparation of 500 μM solution of target compound and positive control: 5 μL of each 10 mM stock solution was taken, added to 95 μL acetonitrile, and mixed for 30 s;
Preparation of 6 mM NADPH solution: 100 mM Stock aliquot liquid was diluted with Mg-Mg —K-Buffer.
2.1.1 Liver microsome solution: 18.75 μL of 20 mg/mL HLM, RLM, MLM, DLM, MOLM (final concentration: 0.5 mg/ml) were taken and placed them in each well of a 96-well plate;
2.1.2 1.5 μL of 500 μM solution of each compound was added respectively;
2.1.3 479.8 μL of phosphate buffer was taken, then added to each compound well, and mixed at 1000 rpm in an oscillating mixer for 10 s.
30 μL of the above samples were taken and aliquoted to a new 96-well plates respectively (including NADPH group, n=2, and no NADPH group at 0 and 45 min, n=1), marked as 0, 5, 15, 30 and 45 min; […]
The slope was calculated based on the LN value of the compound concentration percentage and time as the coordinate axis, and the residual content of the compound after incubation with liver microsomes was calculated based on the slope and formula. […]

[2] = Pharmacokinetic evaluation in mice; type: in vivo; conditions: mouse, plasma, ICR male mice
Description: (§1) Purpose: ICR male mice were selected as test animals. The LC-MS/MS method was used to quantitatively determine the drug concentration in the plasma of mice at different time points after intravenous injection or oral administration of the test compound to evaluate the pharmacokinetic characteristics of the test drug in mice.
Experimental materials: ICR mice (male, 15-35g, 5-10 weeks old, Shanghai Xipu-Bikai Experimental Animal Co., Ltd.)
The clear solution of the test compound was injected into ICR mice via the tail vein (without fasting, vehicle: 5% DMSO/10% Solutol/85% Saline) and administered to ICR mice by gavage (fasting for 10-14h). For intravenous administration, blood was collected from the submandibular venous plexus at 0.033, 0.083, 0.25, 0.5, 1, 2, 4, 8, and 24 hrs after administration, placed in an EDTA-K2 anticoagulant tube (Jiangsu Kangjian Medical Supplies Co., Ltd.), mixed, and centrifuged at 2-8° C., 6800 g for 6 minutes to obtain plasma; for oral gavage administration, blood was collected from the submandibular venous plexus at 0.083, 0.25, 0.5, 1, 2, 4, 6, 8, and 24 hrs after administration, placed in an EDTA-K2 anticoagulant tube (Jiangsu Kangjian Medical Supplies Co., Ltd.), mixed, and centrifuged at 2-8° C., 6800 g for 6 minutes to obtain plasma. The blood drug concentration was determined by LC-MS/MS, and the pharmacokinetic software Phoenix WinNonlinTM Version 7.0 (Pharsight, USA) was used to calculate the relevant pharmacokinetic parameters by the non-compartmental linear logarithmic trapezoidal method. The compounds of the present disclosure have good pharmacokinetic characteristics in mice, and the test results of representative compounds are shown in Table 8.

[3] = Pharmacokinetic evaluation in rats; type: in vivo; conditions: rat, plasma, SD male rats
Description: as §1, with “The test animals were SD” for “ICR”, “rats.” for “mice were selected as test animals.”, “rats” for “mice”, “rats.” for “mice.”
SD rats (male, 160-300 g, 5-10 weeks old, Shanghai Xipu-Bikai Experimental Animal Co., Ltd.)
The clear solution of the test compound was injected into SD rats via the tail vein (without fasting) (vehicle: 5% DMSO/10% Solutol/85% Saline), and the clear solution of the test compound was administered to SD rats by gavage (fasting for 10-14 h, free access to water) (vehicle: 5% DMSO/10% Solutol/85% Saline). For intravenous administration, blood was collected from the jugular vein at 0.033, 0.083, 0.25, 0.5, 1, 2, 4, 8, and 24 hrs after administration, placed in an EDTA-K2 anticoagulant tube (Jiangsu Kangjian Medical Supplies Co., Ltd.), mixed, and centrifuged at 2-8° C., 6800 g for 6 minutes to obtain plasma; for oral gavage administration, blood was collected from the jugular vein at 0.083, 0.25, 0.5, 1, 2, 4, 6, 8, and 24 hrs after administration, placed in an EDTA-K2 anticoagulant tube (Jiangsu Kangjian Medical Supplies Co., Ltd.), mixed, and centrifuged at 2-8° C., 6800 g for 6 minutes to obtain plasma. The plasma concentration was determined by LC-MS/MS, and the relevant pharmacokinetic parameters were calculated by the non-compartmental linear logarithmic trapezoidal method using Phoenix WinNonlinTM Version 7.0 (Pharsight, USA) pharmacokinetic software. The compounds of the present disclosure have good pharmacokinetic characteristics in rats.

[4] = 1 mg/kg, Dosage IV/PO 1/3 mg/kg
[5] = 1 mg/kg, Dosage IV/PO 1/3 mg/kg, read-out: Vdss
[6] = IV 1 mg/kg, read-out: AUC0-last IV
[7] = IV 1 mg/kg, read-out: T1/2 (IV, h) (converted)
[8] = PO 3 mg/kg, read-out: AUC0-last PO

- LMS (h)(% rem, 45 min) [1]: 93.24 % rem
- clearance [2, 4]: 19.2 mL/min/kg
- Vd [2, 5]: 1.93 L/kg
- Cmax ([2]; Dosage IV/PO 1/3 mg/kg): 1550 ng/mL
- bioavailability ([2]; Dosage IV/PO 1/3 mg/kg): 137%
- AUC(0-t) [2, 6]: 834 ng·h/mL
- half-life [2, 7]: 2.12 h
- AUC(0-t) [2, 8]: 3440 ng·h/mL
- clearance [3, 4]: 5.78 mL/min/kg
- Vd [3, 5]: 1.02 L/kg
- Cmax ([3]; Dosage IV/PO 1/3 mg/kg): 1390 ng/mL
- bioavailability ([3]; Dosage IV/PO 1/3 mg/kg): 94%
- AUC(0-t) [3, 6]: 2880 ng·h/mL
- half-life [3, 7]: 3.36 h
- AUC(0-t) [3, 8]: 8120 ng·h/mL
Structure (SMILES): CC(=O)N1CCOC[C@H]1CNc1nc2nc(-c3c(C)cc(C(F)(F)F)cc3O)ccc2o1 [Compound 111]
